Patent US12630500B2, “Hexasubstituted radialene compounds and applications thereof” (THE UNIVERSITY OF NORTH CAROLINA AT CHARLOTTE, priority 2019, dated 2026)

What was measured:
[1] = Aqueous solubility by UV/Vis spectroscopy; type: physicochemical; conditions: for Solubility / Radical Anion Solubility: aqueous; for Solubility: dianionic state (disodium salt); for Radical Anion Solubility: radical anionic state
Protocol: One nitrile group was systematically substituted at a time in an effort to preserve the favorable oxidation potential of the redox couple. To this end, a series of asymmetric, ester-substituted, [3] radialene species (FIG. 3, Compounds 1-4) were prepared via the zwitterionic synthetic method. The aqueous solubilities of these compounds in both the dianionic and radical anionic states were determined using UV/Vis spectroscopy (Table 1).

[2] = Cyclic voltammetry in water (GC working electrode, Ag/AgCl reference); type: physicochemical; conditions: for E^ox1/2 / ipc/ipa: in water
Text: FIG. 2A provides cyclic voltammograms of a hexasubstituted radialene dianion ([…]) using a glassy carbon (GC) working electrode, platinum auxiliary electrode, and Ag/AgCl reference electrode measured at various scan rates (10-700 mV/s) in water.
(§1) Hexacyano[3] radialene was initially used as a model system to probe the efficacy of hexasubstituted radialenes as redox couples in pH 7 aqueous solutions. A prerequisite for a practical aqueous catholyte is a high oxidation potential that occurs within the electrochemical window of water. The electrochemistry of [C6(CN)6]^2− as a tetrabutylammonium (TBA) salt in organic solvents only. […] Using cyclic voltammetry (CV), it was first established that the one electron oxidation of the dianion to the radical anion occurs at a potential favorable for use as a catholyte for RFBs, 480 mV.
(§2) This value was almost identical to the diffusion coefficients of hydrophilic ferrocene derivatives in neutral pH solutions of NaCl. […] Such chemical stability is essential for durable RFB electrolytes.

[3] = type: physicochemical
Text: as §1, §2
Diester compound 3 was selected for further analysis due to its favorable solubility in both redox states and its adequate oxidation potential in water. Electrochemical studies of compound 3 were performed to gauge its stability and galvanostatic cycling performance in aqueous solution. […] This assuages concerns of the possibility of ester hydrolysis. Next, a symmetrical H-cell with a cation-exchange membrane separator was used for aqueous galvanostatic charge-discharge experiments (FIG. 4B). The compound 3 undergoes steady cycling over a period of 12 days (50 cycles). […] The higher relative capacity retention was ascribed to the asymmetry and non-planarity of the diester congener, which helps limit dimerization interactions.

[4] = Conductivity of aqueous solutions; type: physicochemical; conditions: for Conductivity: first value of the pair; for Conductivity (value in parentheses): not defined in the patent
[5] = Stability in air and thermal stability; type: physicochemical
Text: Hexacyano[3] radialene (Na2C6(CN)6), compound 1 in FIG. 3, was synthesized at low temperatures, on a large scale, and in high yield (for example 45 g, 91%). This convenient synthesis uses inexpensive precursors (tetrachlorcyclopropene (TCCP) and malononitrile), reagents (sodium hydride), and solvent (glyme). […] Furthermore, this compound is stable in air, and can be sequentially oxidized in two single-electron transfers. The product of the first oxidation, radical anion the compound ·- is particularly persistent. […] Remarkably, the radical anion is thermally stable to above 180° C. The inherent stability of the compound and persistence of the radical anion ·- signifies that the redox couple is favorable for use in a RFB, a device in which long lifespan is required. Finally, aqueous solutions of the dianion are colorless, while the radical anion produces a deep blue color when dissolved. This is advantageous for visually following the charge-discharge characteristics of proposed RFBs.

[6] = Cyclic voltammetry in water (GC working electrode, Ag/AgCl reference); type: physicochemical; conditions: Randles-Sevcik equation, scan rates 0-700 mV/s
[7] = reported catholytes for neutral aqueous RFBs; cited from earlier work

Solubility [1] [M] | Radical Anion Solubility [1] [M] | solubility in water ([1]; disodium salt) [M] | E^ox1/2 [2] [V] | ipc/ipa [2] | stability of dianion in water [3] | conductivity of aqueous solutions without supporting electrolyte ([4]; 0.1 M, without NaCl) | Conductivity [4] [mS/cm] | Conductivity (value in parentheses) [4] | stability in air ([5]; dianion compound) | thermal stability of radical anion ([5]; radical anion) | storage of radical anion in air ([5]; radical anion, isolated via chemical oxidation) | solubility in water ([1]; dianion) [M] | potential of one electron oxidation of dianion to radical anion ([2]; cyclic voltammetry, aqueous pH 7) [mV] | diffusion coefficient for the electron transfer process [6] | stability in aqueous solutions ([3]; pH 7) | Compound | change in peak current height on standing ([3]; solutions of dianion and radical anion left five days) | oxidation potential [7] [mV]
0.45 | 0.17 | 0.85 | 0.35 | 1.06 | stable in water | sufficiently conductive | 36.7 | (23.2) mS/cm | – | – | – | – | – | – | – | COC(=O)[C-](C#N)C1=C([C-](C#N)C(=O)OC)C1=C(C#N)C#N.[Na+].[Na+] (stereo not drawn) [Compound 3, diester-tetracyano [3] radialene dianion] | – | –
0.19 | 0.08 | – | 0.4 | 0.97 | – | – | 15.7 | (2.36) mS/cm | – | – | – | – | – | – | – | COC(=O)C(C#N)=C1C([C-](C#N)C#N)=C1[C-](C#N)C#N.[Na+].[Na+] [Compound 2] | – | –
0.82 | <0.025 | – | 0.27 | 1.15 | – | – | 39 | (0.23) mS/cm | – | – | – | – | – | – | – | COC(=O)C(C#N)=C1C([C-](C#N)C(=O)OC)=C1[C-](C#N)C(=O)OC.[Na+].[Na+] (stereo not drawn) [Compound 4] | – | –
<0.1 | <0.025 | – | 0.48 | 1.03 | – | – | 13.2 | (0.147) mS/cm | stable in air | above 180 °C | stored in air indefinitely | 0.025 | 480 | 3.71×10^−6 cm^2/s | stable | N#CC(C#N)=C1C([C-](C#N)C#N)=C1[C-](C#N)C#N.[Na+].[Na+] [Compound 1, Hexacyano[3] radialene (Na2C6(CN)6)] | no significant changes in peak current height | –
– | – | – | – | – | – | – | – | – | – | – | – | – | – | – | – | CC1(C)CC(O)CC(C)(C)N1[O] [4-hydroxy-TEMPO] | – | 610
